Test results published in PubChem BioAssay (NCI).
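In this assay, cells in 96-well plates receive the compound at five concentrations for 48 hours. Endpoints are linearly interpolated between the surrounding concentrations. GI50 is the concentration that inhibits growth by half. The concentration for full growth arrest is given as TGI.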

Assays:
Assay in all cases: NCI tumour cell line growth inhibition, 48 h
TK-10 renal = system: TK-10 renal
MOLT-4 leukemia = system: MOLT-4 leukemia
M14 melanoma = system: M14 melanoma
SK-MEL-28 melanoma = system: SK-MEL-28 melanoma
HCC-2998 colon = system: HCC-2998 colon
EKVX NSCLC = system: EKVX NSCLC
NCI-H226 lung = system: NCI-H226 lung
SN12C renal = system: SN12C renal
MDA-MB-231 breast = system: MDA-MB-231 breast
HOP-62 NSCLC = system: HOP-62 NSCLC

## O=C1OCC2=C1C(c1cccc(Cl)c1)c1cc3c(cc1N2CCO)OCCO3 (stereo not given)
TK-10 renal
  GI50: 0.12 µM
  TGI: 37.3 µM
MOLT-4 leukemia
  GI50: 0.348 µM
  TGI: > 100 µM
M14 melanoma
  GI50: 0.0493 µM
  TGI: 1.57 µM
SK-MEL-28 melanoma
  GI50: 0.0839 µM
  TGI: > 100 µM
HCC-2998 colon
  GI50: 0.157 µM
  TGI: 2.91 µM
EKVX NSCLC
  GI50: 1.54 µM
  TGI: > 89.8 µM
NCI-H226 lung
  GI50: 0.0845 µM
  TGI: 1.85 µM
SN12C renal
  GI50: 0.27 µM
  TGI: 46.3 µM
MDA-MB-231 breast
  GI50: 0.334 µM
  TGI: 4.26 µM
HOP-62 NSCLC
  GI50: 0.0787 µM
  TGI: 40.5 µM

## Cc1[nH]c2ccccc2c1CCCO
TK-10 renal
  GI50: > 100 µM
  TGI: > 100 µM
MOLT-4 leukemia
  GI50: > 100 µM
  TGI: > 100 µM
M14 melanoma
  GI50: > 100 µM
  TGI: > 100 µM
SK-MEL-28 melanoma
  GI50: > 100 µM
  TGI: > 100 µM
HCC-2998 colon
  GI50: > 100 µM
  TGI: > 100 µM
EKVX NSCLC
  GI50: > 100 µM
  TGI: > 100 µM
NCI-H226 lung
  GI50: > 100 µM
  TGI: > 100 µM
SN12C renal
  GI50: > 100 µM
  TGI: > 100 µM
MDA-MB-231 breast
  GI50: > 100 µM
  TGI: > 100 µM
HOP-62 NSCLC
  GI50: > 100 µM
  TGI: > 100 µM

## Cc1cc2c(cc1Cl)SC1=NN(C)C(C)N1S2(=O)=O (stereo not given)
TK-10 renal
  GI50: > 100 µM
  TGI: > 100 µM
MOLT-4 leukemia
  GI50: 71 µM
  TGI: > 100 µM
M14 melanoma
  GI50: > 100 µM
  TGI: > 100 µM
SK-MEL-28 melanoma
  GI50: > 100 µM
  TGI: > 100 µM
HCC-2998 colon
  GI50: > 100 µM
  TGI: > 100 µM
EKVX NSCLC
  GI50: > 100 µM
  TGI: > 100 µM
NCI-H226 lung
  GI50: > 100 µM
  TGI: > 100 µM
SN12C renal
  GI50: > 100 µM
  TGI: > 100 µM
MDA-MB-231 breast
  GI50: > 100 µM
  TGI: > 100 µM
HOP-62 NSCLC
  GI50: > 100 µM
  TGI: > 100 µM

## CC(C)(C)C(=O)OCC1C(=O)OCC1C(=O)N1Cc2cc3ccccc3nc2C1 (stereo not given)
TK-10 renal
  TGI: 6.35 µM
MOLT-4 leukemia
  TGI: 4.06 µM
M14 melanoma
  TGI: 8.08 µM
SK-MEL-28 melanoma
  TGI: 10.8 µM
HCC-2998 colon
  TGI: 29.3 µM
EKVX NSCLC
  TGI: 22.4 µM
NCI-H226 lung
  TGI: 14 µM
SN12C renal
  TGI: 16.8 µM
MDA-MB-231 breast
  TGI: 14.4 µM
HOP-62 NSCLC
  TGI: 22 µM

## COC1CC(O[C@H]2CC[C@@]3(C)[C@H](CC[C@@H]4[C@@H]3CC[C@]3(C)[C@@H](C5=CC(=O)OC5)[C@@H](OC(C)=O)C[C@]43O)C2)OC(C)C1O (stereo not given in full)
TK-10 renal
  GI50: < 0.01 µM
  TGI: < 0.01 µM
MOLT-4 leukemia
  GI50: < 0.01 µM
  TGI: < 0.01 µM
M14 melanoma
  GI50: < 0.01 µM
  TGI: < 0.0106 µM
SK-MEL-28 melanoma
  GI50: < 0.01 µM
  TGI: < 0.01 µM
HCC-2998 colon
  GI50: < 0.01 µM
  TGI: < 0.0187 µM
EKVX NSCLC
  GI50: < 0.01 µM
  TGI: < 0.01 µM
NCI-H226 lung
  GI50: < 0.01 µM
  TGI: < 0.01 µM
MDA-MB-231 breast
  GI50: < 0.01 µM
  TGI: < 0.0155 µM
HOP-62 NSCLC
  GI50: < 0.01 µM
  TGI: < 0.01 µM

## COc1ccc(C/C(C)=C(/c2ccc(OCCN3CCCCC3)cc2)c2ccc(OC(=O)NCc3ccccc3)cc2)cc1
TK-10 renal
  GI50: 0.405 µM
  TGI: 0.781 µM
MOLT-4 leukemia
  GI50: 0.404 µM
  TGI: 1.1 µM
M14 melanoma
  GI50: 0.344 µM
  TGI: 0.731 µM
SK-MEL-28 melanoma
  GI50: 0.44 µM
  TGI: 0.818 µM
HCC-2998 colon
  GI50: 0.435 µM
  TGI: 0.797 µM
EKVX NSCLC
  GI50: 0.37 µM
  TGI: 0.773 µM
NCI-H226 lung
  GI50: 0.441 µM
  TGI: 0.868 µM
SN12C renal
  GI50: 0.428 µM
  TGI: 0.8 µM
MDA-MB-231 breast
  GI50: 0.44 µM
  TGI: 0.81 µM
HOP-62 NSCLC
  GI50: 0.419 µM
  TGI: 0.825 µM

## CN(C)CCN1C(=O)c2c(c3c4ccccc4n4c3c3c2c2ccccc2n3C2CC(O)C(O)C4(C)O2)C1=O (stereo not given)
TK-10 renal
  GI50: 1.32 µM
  TGI: 13.5 µM
MOLT-4 leukemia
  GI50: 0.209 µM
  TGI: 10.9 µM
M14 melanoma
  GI50: 1.71 µM
  TGI: 7.47 µM
SK-MEL-28 melanoma
  GI50: 3.02 µM
  TGI: 10.4 µM
HCC-2998 colon
  GI50: 3.93 µM
  TGI: 10.6 µM
EKVX NSCLC
  GI50: 2.24 µM
  TGI: 13 µM
NCI-H226 lung
  GI50: 2.26 µM
  TGI: 29 µM
SN12C renal
  GI50: 0.914 µM
  TGI: 7.87 µM
MDA-MB-231 breast
  GI50: 2.61 µM
  TGI: 11.5 µM
HOP-62 NSCLC
  GI50: 1.24 µM
  TGI: 6.73 µM

## O=C1NNC2(C(=O)N1)c1ccccc1-c1ccccc12
TK-10 renal
  TGI: > 10 µM
MOLT-4 leukemia
  TGI: > 10 µM
M14 melanoma
  TGI: > 10 µM
SK-MEL-28 melanoma
  TGI: > 10 µM
HCC-2998 colon
  TGI: > 10 µM
EKVX NSCLC
  TGI: > 10 µM
NCI-H226 lung
  TGI: > 10 µM
SN12C renal
  TGI: > 10 µM
MDA-MB-231 breast
  TGI: > 10 µM
HOP-62 NSCLC
  TGI: > 10 µM

## COc1cc(OC)c2nc(C)c3c(c2c1)SCC3
TK-10 renal
  TGI: 38.5 µM
MOLT-4 leukemia
  TGI: > 100 µM
M14 melanoma
  TGI: > 100 µM
SK-MEL-28 melanoma
  TGI: > 100 µM
HCC-2998 colon
  TGI: > 100 µM
EKVX NSCLC
  TGI: 52.9 µM
NCI-H226 lung
  TGI: 43.8 µM
SN12C renal
  TGI: 57.9 µM
MDA-MB-231 breast
  TGI: 44.7 µM
HOP-62 NSCLC
  TGI: 34.6 µM

## Cc1cc(NCCCN(C)C)c2ccc3c(ccc4c(NCCCN(C)C)cc(C)nc43)c2n1
TK-10 renal
  GI50: 0.24 µM
  TGI: 0.573 µM
MOLT-4 leukemia
  GI50: 0.27 µM
M14 melanoma
  GI50: 0.194 µM
  TGI: 0.397 µM
SK-MEL-28 melanoma
  GI50: 0.187 µM
  TGI: 0.413 µM
HCC-2998 colon
  GI50: 0.134 µM
  TGI: 0.323 µM
EKVX NSCLC
  GI50: 0.246 µM
  TGI: 0.821 µM
NCI-H226 lung
  GI50: 0.215 µM
  TGI: 0.88 µM
SN12C renal
  GI50: 0.157 µM
  TGI: 0.553 µM
MDA-MB-231 breast
  GI50: 0.175 µM
  TGI: 0.468 µM
HOP-62 NSCLC
  GI50: 0.196 µM
  TGI: 0.489 µM

## C/C(O)=C(/C=N/C(=S)Nc1ccc(S(N)(=O)=O)cc1)C(=O)Nc1ccccc1C
TK-10 renal
  TGI: > 100 µM
MOLT-4 leukemia
  TGI: > 100 µM
M14 melanoma
  TGI: > 100 µM
HCC-2998 colon
  TGI: > 100 µM
EKVX NSCLC
  TGI: > 100 µM
NCI-H226 lung
  TGI: > 100 µM
SN12C renal
  TGI: > 100 µM
MDA-MB-231 breast
  TGI: > 100 µM
HOP-62 NSCLC
  TGI: > 100 µM

## NCCCC[C@@H]1NC(=O)[C@H]2CCCN2C(=O)[C@H](Cc2ccccc2)CNC(=O)[C@H](Cc2ccccc2)NC1=O
TK-10 renal
  GI50: > 37.5 µM
  TGI: > 37.5 µM
MOLT-4 leukemia
  GI50: > 37.5 µM
  TGI: > 37.5 µM
M14 melanoma
  GI50: > 37.5 µM
  TGI: > 37.5 µM
SK-MEL-28 melanoma
  GI50: > 37.5 µM
  TGI: > 37.5 µM
HCC-2998 colon
  GI50: > 37.5 µM
  TGI: > 37.5 µM
EKVX NSCLC
  GI50: > 37.5 µM
  TGI: > 37.5 µM
NCI-H226 lung
  GI50: > 37.5 µM
  TGI: > 37.5 µM
SN12C renal
  GI50: > 37.5 µM
  TGI: > 37.5 µM
MDA-MB-231 breast
  GI50: > 37.5 µM
  TGI: > 37.5 µM
HOP-62 NSCLC
  GI50: > 37.5 µM
  TGI: > 37.5 µM

## O=C1/C(=C/c2ccccc2)CN(C(=O)CCN2CCOCC2)C/C1=C\c1ccccc1
TK-10 renal
  TGI: 24.3 µM
MOLT-4 leukemia
  TGI: 21.6 µM
M14 melanoma
  TGI: 5.4 µM
SK-MEL-28 melanoma
  TGI: 3.41 µM
HCC-2998 colon
  TGI: 3.68 µM
EKVX NSCLC
  TGI: 26.7 µM
NCI-H226 lung
  TGI: 15 µM
SN12C renal
  TGI: 4.55 µM
MDA-MB-231 breast
  TGI: 9.78 µM
HOP-62 NSCLC
  TGI: 17.3 µM

## C#CC#CC#CC#CC#CC#CC#CC#CCC1OCC(COC(=O)O[C@@H](C(=O)O[C@H]2C[C@@]3(O)[C@@H](OC(=O)c4ccccc4)[C@@H]4[C@]5(OC(C)=O)CO[C@@H]5C[C@H](O)[C@@]4(C)C(=O)[C@H](OC(C)=O)C(=C2C)C3(C)C)[C@@H](NC(=O)c2ccccc2)c2ccccc2)O1 (stereo not given in full)
TK-10 renal
  GI50: > 16.3 µM
  TGI: > 33.3 µM
MOLT-4 leukemia
  GI50: 0.212 µM
  TGI: > 33.3 µM
M14 melanoma
  GI50: 0.16 µM
SK-MEL-28 melanoma
  GI50: 0.25 µM
  TGI: > 33.3 µM
HCC-2998 colon
  GI50: 0.287 µM
  TGI: > 33.3 µM
EKVX NSCLC
  GI50: > 26.3 µM
  TGI: > 33.3 µM
NCI-H226 lung
  GI50: 2.22 µM
  TGI: > 33.3 µM
SN12C renal
  GI50: 0.51 µM
  TGI: > 33.3 µM
MDA-MB-231 breast
  GI50: 0.447 µM
  TGI: > 33.3 µM
HOP-62 NSCLC
  GI50: 0.775 µM
  TGI: > 33.3 µM
